Experimental data from patent US7462600B2, “Macrolides” (Pfizer Inc, priority 2004, dated 2008).
Converted amounts (≈) assume the structure as drawn. Where two headings read alike, the source gives them in different places.

Assays:
Assay type in all cases: cell-based
[1] = tested on: Streptococcus pyogenes 1079; test: MIC, microtiter broth dilution (NCCLS M100-S14), S. pyogenes 1079 (ermB)
Method in brief: (§1)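 Compounds were first dissolved in DMSO (40 mg/ml stock), then tested by broth dilution in microtiter trays. MICs were interpreted using the 14th Informational Supplement (M100-S14) criteria.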

[2] = tested on: Haemophilus influenzae 1218; test: MIC, microtiter broth dilution (NCCLS M100-S14), H. influenzae 1218 (susceptible)
Method in brief: as §1

[3] = tested on: Streptococcus pneumoniae 1095; settings: microtiter broth dilution
Method in brief: as §1

[4] = tested on: Streptococcus pneumoniae 1175; settings: microtiter broth dilution
Method in brief: as §1

[5] = tested on: Streptococcus pneumoniae 1016; test: MIC, microtiter broth dilution (NCCLS M100-S14), S. pneumoniae 1016 (susceptible)
Method in brief: as §1

[6] = H. influenzae 1218 (susceptible)
[7] = S. pneumoniae 1016 (susceptible)

Structure (SMILES) | MIC S. pyogenes 1079 ([1]; S. pyogenes 1079 (ermB)) | MIC H. influenzae 1218 [2, 6] | MIC S. pneumo. 1095 ([3]; S. pneumoniae 1095 (ermB)) | MIC S. pneumo. 1175 ([4]; S. pneumoniae 1175 (mefA)) | MIC S. pneumo. 1016 [5, 7] | MIC S. pyogenes 1079 ([1]; Streptococcus pyogenes 1079) | MIC H. influenzae 1218 ([2]; Haemophilus influenzae 1218) | MIC S. pneumo. 1095 ([3]; Streptococcus pneumoniae 1095) | MIC S. pneumo. 1175 ([4]; Streptococcus pneumoniae 1175) | MIC S. pneumo. 1016 ([5]; Streptococcus pneumoniae 1016)
CCC1OC(=O)C(C)C(=O)C(C)C(OC2OC(C)CC(N(C)C)C2O)C(C)(OC)CC(C)C(=O)C(C)C2N(CC3CCCN3C(=O)c3ccc(C)[nH]c3=O)C(=O)OC12C (centres unmarked) [10.48] | >64.00 µg/mL | 1 µg/mL (≈ 1.2 µM) | 4 µg/mL (≈ 4.81 µM) | 0.5 µg/mL (≈ 0.602 µM) | <0.06 µg/mL |  |  |  |  | 
CCC1OC(=O)C(C)(F)C(=O)C(C)C(OC2OC(C)CC(N(C)C)C2O)C(C)(OC)CC(C)C(=O)C(C)C2N(CC3CCCN3C(=O)c3cc4ccccn4n3)C(=O)OC12C (centres unmarked) [10.28] | 16 µg/mL (≈ 18.6 µM) | 1 µg/mL (≈ 1.17 µM) | <0.06 µg/mL | 0.12 µg/mL (≈ 0.14 µM) | <0.06 µg/mL |  |  |  |  | 
CCC1OC(=O)C(C)C(=O)C(C)C(OC2OC(C)CC(N(C)C)C2O)C(C)(OC)CC(C)C(=O)C(C)C2N(C3CN(Cc4ccccc4)C3)C(=O)OC12C (centres unmarked) [Example 1.01, benzyl] |  |  |  |  |  | >64.00 µg/mL | 0.5 µg/mL (≈ 0.66 µM) | <0.06 µg/mL | 0.12 µg/mL (≈ 0.158 µM) | <0.06 µg/mL
CCC1OC(=O)C(C)C(=O)C(C)C(OC2OC(C)CC(N(C)C)C2O)C(C)(OC)CC(C)C(=O)C(C)C2N(CC3CCN(Cc4cnc(-c5ccccc5)[nH]4)CC3)C(=O)OC12C (centres unmarked) [15.08] | >64.00 µg/mL | 2 µg/mL (≈ 2.31 µM) | >64.00 µg/mL | 1 µg/mL (≈ 1.15 µM) | <0.06 µg/mL |  |  |  |  | 
CCC1OC(=O)C(C)C(=O)C(C)C(OC2OC(C)CC(N(C)C)C2O)C(C)(OC)CC(C)C(=O)C(C)C2N(CC3CCCN3C(=O)c3nc4ccncc4[nH]3)C(=O)OC12C (centres unmarked) [10.24] | >64.00 µg/mL | 2 µg/mL (≈ 2.38 µM) | <0.06 µg/mL | 1 µg/mL (≈ 1.19 µM) | <0.06 µg/mL |  |  |  |  | 
CCC1OC(=O)C(C)C(=O)C(C)C(OC2OC(C)CC(N(C)C)C2O)C(C)(OC)CC(C)C(=O)C(C)C2N(C3CN(S(=O)(=O)c4ccc(OC)cc4OC)C3)C(=O)OC12C (centres unmarked) [Example 3.31, 3-descladinosyl-11,12-dideoxy-6-O-methyl-3-oxo-12,11-(1-(oxycarbonyl-(2,4-dimethoxybenzenesulfonyl)-azetidin-3-yl)-imino)-erythromycin A] |  |  |  |  |  | 4 µg/mL (≈ 4.61 µM) | 0.5 µg/mL (≈ 0.576 µM) | 2 µg/mL (≈ 2.3 µM) | 0.12 µg/mL (≈ 0.138 µM) | <0.06 µg/mL
CCC1OC(=O)C(C)C(=O)C(C)C(OC2OC(C)CC(N(C)C)C2O)C(C)(OC)CC(C)C(=O)C(C)C2N(CC3CCCN3C(=O)c3ccc4cccnc4n3)C(=O)OC12C.O=CO (centres unmarked) [10.16] | >64.00 µg/mL | 0.25 µg/mL | <0.06 µg/mL | 0.25 µg/mL | <0.06 µg/mL |  |  |  |  | 
CCC1OC(=O)C(C)C(=O)C(C)C(OC2OC(C)CC(N(C)C)C2O)C(C)(OC)CC(C)C(=O)C(C)C2N(CC3CCCN3C(=O)c3cccc4nccnc34)C(=O)OC12C (centres unmarked) [10.33] | >64.00 µg/mL | 2 µg/mL (≈ 2.35 µM) | <0.06 µg/mL | 0.25 µg/mL (≈ 0.293 µM) | <0.06 µg/mL |  |  |  |  | 
CC[C@H]1OC(=O)[C@H](C)C(=O)[C@H](C)[C@@H](O[C@@H]2O[C@H](C)C[C@H](N(C)C)[C@H]2O)[C@](C)(OC)C[C@@H](C)C(=O)[C@H](C)[C@H]2N(CC3(C)CN(Cc4cnc5ccccc5n4)C3)C(=O)O[C@]12C [6.07] |  |  |  |  |  | >64.00 µg/mL | 4 µg/mL (≈ 4.77 µM) | 1 µg/mL (≈ 1.19 µM) | 0.5 µg/mL (≈ 0.597 µM) | <0.06 µg/mL
CCC1OC(=O)C(C)C(=O)C(C)C(OC2OC(C)CC(N(C)C)C2O)C(C)(OC)CC(C)C(=O)C(C)C2N(C3CN(Cc4ccncc4)C3)C(=O)OC12C (centres unmarked) [Example 1.04, (pyridin-4-yl)methyl] |  |  |  |  |  | >64.00 µg/mL | 0.25 µg/mL (≈ 0.329 µM) | 0.12 µg/mL (≈ 0.158 µM) | 0.5 µg/mL (≈ 0.659 µM) | <0.06 µg/mL
